Measured values reported in patent publication US7390830B1, “Remedies or prophylactics for diseases in association with chemokines” (Teijin Limited, priority 1999, dated 2008).
pIC50: −log10 of the molar value.

Test system: THP-1 cells
Experiment: Inhibitory activity against cell chemotaxis caused by MCP-1
Assay type: cell-based
Details: Homo sapiens, MCP-1 20 ng/mL
Description: In order to determine the inhibitory activity of the compounds according to the present invention against the cell chemotaxis, human monocytic leukemia cell line THP-1 was used as chemotactic cells according to the method of Fall et al. (J. Immunol. Methods, 1980, 33, 239-247) to determine the cell chemotaxis caused by monocyte chemotactic factor MCP-1 as follows: Namely, 2×10^6 cells/mL of the THP-1 cells [suspended in RPMI-1640 (Flow Laboratories Co.) 10% FCS] were placed in the upper chamber (200 μL) of a 96-well microchemotaxis chamber (Neuroprobe®), and human recombinant MCP-1 (Peprotech Co.) diluted with the same solution so as to provide the final concentration of 20 ng/mL was placed in the lower chamber (35 μL). A polycarbonate filter (PVP-free, Neuroprobe®) was placed between the two chambers. These were incubated in the presence of 5% of CO2 at 37° C. for 2 hours.
The filter was removed, and the cells which had migrated to the undersurface of the filter were immobilized, stained using Diff Quick (Kokusai Shiyaku Co.) and then measured at a measuring wavelength of 550 nm using a plate reader (Molecular Device Co.) to determine the means of 3 wells. Thereby, the indication of the number of cells migrated was obtained. The test compound together with the THP-1 cells was added to the upper chamber at various concentrations to determine the inhibitory activity against cell chemotaxis [degree of inhibition: IC50 (μM)].

Question: How did the pIC50 turn out when `Nc1cc(Cl)ccc1CN1CCC(CNC(=O)CNC(=O)c2cc(C(F)(F)F)ccc2N)CC1` [Compd. No. 1919, 4-[[N-(2-amino-5-trifluoromethylbenzoyl)glycyl]aminomethyl]-1-(2-amino-4-chlorobenzyl)piperidine] was run?
Answer: ≥ 7.00

Question: `Cc1ccc(CN2CCC(CNC(=O)CNC(=O)c3cc(F)c(F)cc3N)CC2)cc1N` [Compd. No. 2114, 4-[[N-(2-amino-4,5-difluorobenzoyl)glycyl]aminomethyl]-1-(3-amino-4-methylbenzyl)piperidine] was tested. Which pIC50 did it give?
Answer: ≥ 7.00

Question: `COc1ccc(CN2CC[C@@H](NC(=O)CNC(=O)c3cc(OC(F)(F)F)ccc3N)C2)cc1O` [Compd. No. 1896, (R)-3-[[N-(2-amino-5-trifluoromethoxybenzoyl)glycyl]amino]-1-(3-hydroxy-4-methoxybenzyl)pyrrolidine] was tested. Which pIC50 did it give?
Answer: ≥ 7.00

Question: How did the pIC50 turn out when `O=C(CNC(=O)c1cccc(C(F)(F)F)c1)NCC1CCN(Cc2ccc(Cl)cc2)CC1` [Compd. No. 461, 1-(4-chlorobenzyl)-4-[[N-[3-(trifluoromethyl)benzoyl]glycyl]aminomethyl]piperidine] was run?
Answer: ≥ 7.00

Question: With `Nc1ccc(Br)cc1C(=O)NCC(=O)NCC1CCN(Cc2ccc(Cl)cc2)CC1` [Compd. No. 1042, 4-[N-(2-amino-5-bromobenzoyl)glycyl]aminomethyl-1-(4-chlorobenzyl)piperidine] as the compound, how does the pIC50 read?
Answer: ≥ 7.00

Question: How did the pIC50 turn out when `Cc1noc(C)c1CN1CC[C@@H](NC(=O)CNC(=O)c2cc(F)cc(C(F)(F)F)c2)C1` [Compd. No. 1191, (R)-3-[N-[3-fluoro-5-(trifluoromethyl)benzoyl]glycyl]amino-1-(3,5-dimethylisoxazol-4-ylmethyl)-pyrrolidine] was run?
Answer: ≥ 7.00

Question: With `Nc1cc(Cl)ccc1CN1CC[C@@H](NC(=O)CNC(=O)c2cc(OC(F)(F)F)ccc2N)C1` [Compd. No. 1921, (R)-3-[[N-(2-amino-5-trifluoromethoxybenzoyl)glycyl]amino]-1-(2-amino-4-chlorobenzyl)pyrrolidine] as the compound, how does the pIC50 read?
Answer: ≥ 7.00

Question: With `C=Cc1ccc(CN2CC[C@@H](NC(=O)CNC(=O)c3cc(C(F)(F)F)ccc3N)C2)cc1` [Compd. No. 1701, (R)-3-[[N-(2-amino-5-(trifluoromethyl)benzoyl)glycyl]amino]-1-(4-vinylbenzyl)pyrrolidine] as the compound, how does the pIC50 read?
Answer: ≥ 7.00

Question: How did the pIC50 turn out when `Nc1ccc(C(F)(F)F)cc1C(=O)NCC(=O)N[C@@H]1CCN(c2ccc3ocnc3c2)C1` [Compd. No. 2189, (R)-3-[[N-(2-amino-5-trifluoromethylbenzoyl)glycyl]amino]-1-(benz[d]oxazol-5-yl)pyrrolidine] was run?
Answer: ≥ 7.00

Question: With `CNc1cc(CN2CC[C@@H](NC(=O)CNC(=O)c3cc(C(F)(F)F)ccc3N)C2)ccc1O` [Compd. No. 2158, (R)-3-[[N-(2-amino-5-trifluoromethylbenzoyl)glycyl]amino]-1-(3-methylamino-4-hydroxybenzyl)pyrrolidine] as the compound, how does the pIC50 read?
Answer: ≥ 7.00

Question: How did the pIC50 turn out when `Nc1cc(CN2CCC(CNC(=O)CNC(=O)c3cc(F)c(F)cc3N)CC2)ccc1O` [Compd. No. 2141, 4-[[N-(2-amino-4,5-difluorobenzoyl)glycyl]aminomethyl]-1-(3-amino-4-hydroxybenzyl)piperidine] was run?
Answer: ≥ 7.00

Question: How did the pIC50 turn out when `Nc1cc(CN2CC[C@@H](NC(=O)CNC(=O)c3cc(C(F)(F)F)ccc3N)C2)ccc1Cl` [Compd. No. 2132, (R)-1-(3-amino-4-chlorobenzyl)-3-[[N-(2-amino-5-trifluoromethylbenzoyl)glycyl]amino]pyrrolidine] was run?
Answer: ≥ 7.00

Molecular target: T1, human MCP-1 binding to THP-1 cells (Homo sapiens, UniProt P41597)
T1 construct: endogenous in cells; host or cells: THP-1 (whole cells)
T1 sequence (P41597 1-360 isoform P41597-2): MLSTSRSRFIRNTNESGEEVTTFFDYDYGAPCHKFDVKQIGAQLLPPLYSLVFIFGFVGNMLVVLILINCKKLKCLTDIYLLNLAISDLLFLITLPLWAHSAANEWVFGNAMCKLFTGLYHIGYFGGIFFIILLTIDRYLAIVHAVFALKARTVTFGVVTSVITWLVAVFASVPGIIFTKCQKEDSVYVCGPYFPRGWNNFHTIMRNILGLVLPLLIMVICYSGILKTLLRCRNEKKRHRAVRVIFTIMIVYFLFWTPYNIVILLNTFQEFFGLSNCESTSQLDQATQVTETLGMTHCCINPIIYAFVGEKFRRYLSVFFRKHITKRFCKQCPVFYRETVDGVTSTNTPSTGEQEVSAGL
Experiment: Inhibitory activity against binding of [125I]-labeled human MCP-1 to THP-1 cells (method 2)
Details: concentration of 1 μM
Description: Two kinds of DNA synthetic primers (5′-[…]-3′ (SEQ ID NO:1) and 5′-[…]-3′) (SEQ ID NO:2) having restriction enzyme recognition sites applied on the basis of the known human MCP-1 gene sequence (see, for example, Yoshimura, T. et al. FEBS Letters 1989, 244, 487-493) were used to amplify a cDNA derived from human vascular endothelial cells (purchased from Kurabow) according to a PCR method. The amplified fragment was cleaved with restriction enzymes (PstI and XbaI) and then ligated into a transfer vector pVL1393 (Invitrogen Co.). The resulting vector was co-transfected with an infectious baculovirus into Sf-9 insect cells. Human MCP-1 gene recombinant baculoviruses were isolated from the obtained supernatant by a plaque assay method.
According to the method of Ishii, K. et al. (see Biochemical and Biophysical Research Communications, 1995, 206, 955-961), 5×10^6 cells of Sf-9 insect cells were infected with 5×10^7 PFU (plaque-forming units) of the above human MCP-1 gene recombinant baculoviruses and cultured in EX-CELL 401 medium for 7 days. The resulting culture supernatant was affinity purified by a heparin-Sepharose column (Pharmacia Co.) and then subjected to reverse phase HPLC (Vydac C18 column) to afford a purified human MCP-1. The protein labeling of the resulting purified human MCP-1 was requested for Amersham Co. to obtain a [^125I]-labeled human MCP-1 expressed with baculovirus (specific activity: 2000 Ci/mmol) prepared by the Bolten Hunter method. The resulting [^125I]-labeled human MCP-1 was used for the following tests.
THP-1 cells which are human monocytic leukemia cell line were suspended in an assay buffer (containing 50 mM of HEPES, 11.0 mM of CaCl2, 5.0 mM of MgCl2 and 0.5% of BSA at pH 7.4) so as to provide 1×10^7 cells/mL to thereby obtain a cell suspension. A solution obtained by diluting the test compound with the assay buffer was used as a test compound solution. A solution prepared by diluting the above [^125I]-labeled human MCP-1 expressed with baculovirus with the assay buffer so as to provide 1 μCi/mL was used as a labeled ligand solution. In a 96-well filter plate (Millipore Co.), were aliquoted 25 μL of the test compound solution, 25 μL of the labeled ligand solution and 50 μL of the cell suspension in the order mentioned for each well. The solutions were stirred (100 μL of the reaction solution) and then incubated at 18° C. for 1 hour.
After completing the reaction, the reaction solution was filtered through a filter, and the filter was washed with 200 μL of cold PBS twice (the reaction solution was filtered after adding 200 μL of the cold PBS). The filter was air-dried, and […] of liquid scintillator was then added by into each well to count the radioactivity retained by the cells on the filter using TopCount (Packard Instrument Co.). The count when 100 ng of the above human MCP-1 expressed with baculovirus(unlabeled) instead of the test compound was added was subtracted as nonspecific adsorption, and the count when the test compound was not added was 100%. Thereby, the inhibitory activity of the test compound against binding of the human MCP-1 to THP-1 cells was calculated. Inhibition ratio (%)={1−(A−B)/(C−B)}×100 (wherein A is the count when the test compound is added; B is the count when 100 ng of the unlabeled human MCP-1 is added; C is the count when only the [^125I]-labeled human MCP-1 is added).

Question: With `Cc1ccc(C(=O)NCC(=O)NCC2CCN(Cc3ccc(Cl)cc3)CC2)cc1Br` [Compd. No. 1113, 4-[[N-(3-bromo-4-methylbenzoyl)glycyl]aminomethyl]-1-(4-chlorobenzyl)piperidine] as the compound, how does the inhibition at 1 µM read?
Answer: 50 to 80%

Question: With `Nc1cc(F)c(F)cc1C(=O)NCC(=O)NCC1CCN(c2ccc3nonc3c2)CC1` [Compd. No. 2130, 4-[[N-(2-amino-4,5-difluorobenzoyl)glycyl]aminomethyl]-1-(benzo[c]furazan-5-yl)piperidine] as the compound, how does the inhibition at 1 µM read?
Answer: 20 to 50%

Question: With `COCCNC(=O)c1ccc(CN2CCC(CNC(=O)CNC(=O)c3cccc(C(F)(F)F)c3)CC2)cc1` [Compd. No. 1612, 1-[4-[N-(2-methoxyethyl)carbamoyl]benzyl]-4-[[N-(3-(trifluoromethyl)benzoyl)glycyl]aminomethyl]piperidine] as the compound, how does the inhibition at 1 µM read?
Answer: 20 to 50%

Question: How did the inhibition at 1 µM turn out when `Nc1ccc(Cl)cc1C(=O)NCC(=O)N[C@@H]1CCN(Cc2ccc(Cl)cc2)C1` [Compd. No. 1084, (R)-1-(4-chlorobenzyl)-3-[[N-(2-amino-5-chlorobenzoyl)glycyl]amino]pyrrolidine] was run?
Answer: 50 to 80%

Question: With `COc1ncc(CN2CC[C@@H](NC(=O)CNC(=O)c3cc(C(F)(F)F)ccc3N)C2)c(OC)n1` [Compd. No. 2175, (R)-3-[[N-(2-amino-5-trifluoromethylbenzoyl)glycyl]amino]-1-(2,4-dimethoxypyrimidin-5-ylmethyl)pyrrolidine] as the compound, how does the inhibition at 1 µM read?
Answer: 50 to 80%

Question: How did the inhibition at 1 µM turn out when `COc1ccc(CN2CCC(CNC(=O)CNC(=O)c3cccc(C(F)(F)F)c3)CC2)cc1O` [Compd. No. 1452, 1-[3-hydroxy-4-methoxybenzyl]-4-[[N-(3-(trifluoromethyl)benzoyl)glycyl]aminomethyl]piperidine] was run?
Answer: 20 to 50%

Question: Which inhibition at 1 µM does the source give for `Nc1ccc(C(F)(F)F)cc1C(=O)NCC(=O)N[C@@H]1CCN(c2ccc3ocnc3c2)C1` [Compd. No. 2189, (R)-3-[[N-(2-amino-5-trifluoromethylbenzoyl)glycyl]amino]-1-(benz[d]oxazol-5-yl)pyrrolidine] here?
Answer: > 80%

Question: `Cc1noc(C)c1N1CCC(CNC(=O)CNC(=O)c2cc(F)c(F)cc2N)CC1` [Compd. No. 2131, 4-[[N-(2-amino-4,5-difluorobenzoyl)glycyl]aminomethyl]-1-(3,5-dimethylisoxazol-4-yl)piperidine] was tested. Which inhibition at 1 µM did it give?
Answer: 20 to 50%
